Results: ChEMBL document CHEMBL5291721, “A preclinical secondary pharmacology resource illuminates target-adverse drug reaction associations of marketed drugs” (Nat Commun, 2023)

Key:
[1] = biological target: Voltage-gated inwardly rectifying potassium channel KCNH2 (Homo sapiens, UniProt Q12809); type: functional; settings: read-out: AC50
Adenosine receptor A1 = biological target: T1, Adenosine receptor A1 (Homo sapiens, UniProt P30542)
T1 sequence (P30542 whole entry): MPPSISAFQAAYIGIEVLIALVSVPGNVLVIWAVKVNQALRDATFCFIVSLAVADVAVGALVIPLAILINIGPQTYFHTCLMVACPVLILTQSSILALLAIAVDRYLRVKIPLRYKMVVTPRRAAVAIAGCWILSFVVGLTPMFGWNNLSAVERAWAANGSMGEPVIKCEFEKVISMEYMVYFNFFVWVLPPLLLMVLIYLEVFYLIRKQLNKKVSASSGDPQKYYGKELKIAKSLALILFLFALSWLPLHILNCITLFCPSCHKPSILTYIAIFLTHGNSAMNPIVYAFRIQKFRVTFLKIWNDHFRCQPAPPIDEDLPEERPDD

Adenosine receptor A2a = Adenosine receptor A2a (Homo sapiens, UniProt P29274)
[2] = biological target: Neuronal acetylcholine receptor subunit alpha-4 (Homo sapiens, UniProt P43681)
[3] = biological target: Sodium-dependent noradrenaline transporter (Homo sapiens, UniProt P23975)
[4] = biological target: T2, Alpha-2A adrenergic receptor (Homo sapiens, UniProt P08913); type: functional, cell-based
T2 sequence (P08913 whole entry): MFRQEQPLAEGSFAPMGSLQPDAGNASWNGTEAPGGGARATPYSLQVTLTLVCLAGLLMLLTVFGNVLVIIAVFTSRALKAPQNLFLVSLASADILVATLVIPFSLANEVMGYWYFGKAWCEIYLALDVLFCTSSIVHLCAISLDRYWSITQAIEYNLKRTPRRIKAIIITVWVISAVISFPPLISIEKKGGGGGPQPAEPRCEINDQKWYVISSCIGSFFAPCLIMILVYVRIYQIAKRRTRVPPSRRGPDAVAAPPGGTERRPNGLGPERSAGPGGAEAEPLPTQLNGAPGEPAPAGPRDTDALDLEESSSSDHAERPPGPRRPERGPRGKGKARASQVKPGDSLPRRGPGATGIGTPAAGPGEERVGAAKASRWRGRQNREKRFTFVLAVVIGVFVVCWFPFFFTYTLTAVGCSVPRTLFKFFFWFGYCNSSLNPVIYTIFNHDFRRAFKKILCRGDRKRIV

[5] = biological target: T3, 5-hydroxytryptamine receptor 1A (Homo sapiens, UniProt P08908); type: functional, cell-based
T3 sequence (P08908 whole entry): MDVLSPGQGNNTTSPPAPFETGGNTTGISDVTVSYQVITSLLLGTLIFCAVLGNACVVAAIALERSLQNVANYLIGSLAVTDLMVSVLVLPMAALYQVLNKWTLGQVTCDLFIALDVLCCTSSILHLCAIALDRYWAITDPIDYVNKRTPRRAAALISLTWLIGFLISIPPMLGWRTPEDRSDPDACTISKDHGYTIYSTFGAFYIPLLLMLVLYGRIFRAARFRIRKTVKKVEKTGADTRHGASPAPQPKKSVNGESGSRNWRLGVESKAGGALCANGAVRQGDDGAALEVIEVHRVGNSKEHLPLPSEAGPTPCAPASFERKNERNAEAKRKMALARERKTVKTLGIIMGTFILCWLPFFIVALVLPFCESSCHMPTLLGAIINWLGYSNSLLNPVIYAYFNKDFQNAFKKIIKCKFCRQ

[6] = biological target: 5-hydroxytryptamine receptor 2B (Homo sapiens, UniProt P41595); type: functional, cell-based
[7] = biological target: T4, 5-hydroxytryptamine receptor 2C (Homo sapiens, UniProt P28335)
T4 sequence (P28335 whole entry): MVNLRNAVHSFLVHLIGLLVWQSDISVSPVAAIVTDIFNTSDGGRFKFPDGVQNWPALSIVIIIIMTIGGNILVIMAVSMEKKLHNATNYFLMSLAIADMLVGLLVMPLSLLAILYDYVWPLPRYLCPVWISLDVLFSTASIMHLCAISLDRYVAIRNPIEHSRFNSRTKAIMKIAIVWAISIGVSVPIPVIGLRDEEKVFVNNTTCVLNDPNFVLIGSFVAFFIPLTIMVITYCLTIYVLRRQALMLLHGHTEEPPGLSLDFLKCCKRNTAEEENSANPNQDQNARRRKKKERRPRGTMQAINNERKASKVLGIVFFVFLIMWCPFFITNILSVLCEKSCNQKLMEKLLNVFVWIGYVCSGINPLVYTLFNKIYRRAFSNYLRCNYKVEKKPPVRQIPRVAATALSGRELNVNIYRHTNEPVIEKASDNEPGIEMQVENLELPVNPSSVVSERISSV

[8] = biological target: T5, Alpha-2C adrenergic receptor (Homo sapiens, UniProt P18825); type: functional
T5 sequence (P18825 whole entry): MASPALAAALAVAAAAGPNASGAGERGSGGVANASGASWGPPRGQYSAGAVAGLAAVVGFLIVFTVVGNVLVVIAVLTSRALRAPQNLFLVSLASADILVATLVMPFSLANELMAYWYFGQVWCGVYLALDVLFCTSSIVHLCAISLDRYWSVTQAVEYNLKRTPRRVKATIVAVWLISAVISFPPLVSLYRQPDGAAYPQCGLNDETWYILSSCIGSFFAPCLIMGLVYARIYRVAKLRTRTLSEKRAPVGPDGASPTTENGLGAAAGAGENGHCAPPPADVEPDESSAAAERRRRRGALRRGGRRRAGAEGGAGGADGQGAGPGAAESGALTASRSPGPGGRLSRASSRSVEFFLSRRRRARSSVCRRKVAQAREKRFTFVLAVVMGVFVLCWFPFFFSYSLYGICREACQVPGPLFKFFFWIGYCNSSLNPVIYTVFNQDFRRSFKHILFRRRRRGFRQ
Further: assay procedure not described here.

Sequence of Neuronal acetylcholine receptor subunit alpha-4 (P43681 whole entry): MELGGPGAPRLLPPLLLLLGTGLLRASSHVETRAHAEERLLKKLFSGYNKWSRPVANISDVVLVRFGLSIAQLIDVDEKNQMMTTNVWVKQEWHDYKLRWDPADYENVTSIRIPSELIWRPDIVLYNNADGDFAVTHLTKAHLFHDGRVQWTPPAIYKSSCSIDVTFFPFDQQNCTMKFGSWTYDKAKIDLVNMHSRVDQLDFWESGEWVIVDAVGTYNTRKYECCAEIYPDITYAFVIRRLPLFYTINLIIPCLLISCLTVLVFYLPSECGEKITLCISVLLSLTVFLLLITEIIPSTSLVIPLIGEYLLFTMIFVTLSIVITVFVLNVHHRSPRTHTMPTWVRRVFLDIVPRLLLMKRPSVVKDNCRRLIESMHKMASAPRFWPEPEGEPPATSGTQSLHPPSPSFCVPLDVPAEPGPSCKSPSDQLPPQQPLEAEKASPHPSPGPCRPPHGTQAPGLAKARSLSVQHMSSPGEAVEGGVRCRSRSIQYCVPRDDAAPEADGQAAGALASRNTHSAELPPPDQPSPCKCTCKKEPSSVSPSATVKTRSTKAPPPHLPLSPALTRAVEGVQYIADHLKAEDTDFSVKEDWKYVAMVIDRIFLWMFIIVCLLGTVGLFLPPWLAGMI
Sequence of 5-hydroxytryptamine receptor 2B (P41595 whole entry): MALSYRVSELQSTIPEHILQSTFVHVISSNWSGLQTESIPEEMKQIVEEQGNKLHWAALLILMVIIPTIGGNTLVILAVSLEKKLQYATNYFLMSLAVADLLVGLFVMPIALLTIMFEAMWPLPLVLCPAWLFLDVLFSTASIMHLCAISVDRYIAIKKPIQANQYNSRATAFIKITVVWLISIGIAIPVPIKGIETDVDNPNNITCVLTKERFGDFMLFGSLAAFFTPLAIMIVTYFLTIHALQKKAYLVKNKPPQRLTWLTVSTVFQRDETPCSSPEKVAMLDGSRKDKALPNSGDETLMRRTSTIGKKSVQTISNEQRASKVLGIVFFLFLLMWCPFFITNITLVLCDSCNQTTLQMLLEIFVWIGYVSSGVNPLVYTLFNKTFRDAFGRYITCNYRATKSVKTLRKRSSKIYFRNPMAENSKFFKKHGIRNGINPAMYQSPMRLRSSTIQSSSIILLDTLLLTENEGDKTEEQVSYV
Sequence of Voltage-gated inwardly rectifying potassium channel KCNH2 (Q12809 whole entry): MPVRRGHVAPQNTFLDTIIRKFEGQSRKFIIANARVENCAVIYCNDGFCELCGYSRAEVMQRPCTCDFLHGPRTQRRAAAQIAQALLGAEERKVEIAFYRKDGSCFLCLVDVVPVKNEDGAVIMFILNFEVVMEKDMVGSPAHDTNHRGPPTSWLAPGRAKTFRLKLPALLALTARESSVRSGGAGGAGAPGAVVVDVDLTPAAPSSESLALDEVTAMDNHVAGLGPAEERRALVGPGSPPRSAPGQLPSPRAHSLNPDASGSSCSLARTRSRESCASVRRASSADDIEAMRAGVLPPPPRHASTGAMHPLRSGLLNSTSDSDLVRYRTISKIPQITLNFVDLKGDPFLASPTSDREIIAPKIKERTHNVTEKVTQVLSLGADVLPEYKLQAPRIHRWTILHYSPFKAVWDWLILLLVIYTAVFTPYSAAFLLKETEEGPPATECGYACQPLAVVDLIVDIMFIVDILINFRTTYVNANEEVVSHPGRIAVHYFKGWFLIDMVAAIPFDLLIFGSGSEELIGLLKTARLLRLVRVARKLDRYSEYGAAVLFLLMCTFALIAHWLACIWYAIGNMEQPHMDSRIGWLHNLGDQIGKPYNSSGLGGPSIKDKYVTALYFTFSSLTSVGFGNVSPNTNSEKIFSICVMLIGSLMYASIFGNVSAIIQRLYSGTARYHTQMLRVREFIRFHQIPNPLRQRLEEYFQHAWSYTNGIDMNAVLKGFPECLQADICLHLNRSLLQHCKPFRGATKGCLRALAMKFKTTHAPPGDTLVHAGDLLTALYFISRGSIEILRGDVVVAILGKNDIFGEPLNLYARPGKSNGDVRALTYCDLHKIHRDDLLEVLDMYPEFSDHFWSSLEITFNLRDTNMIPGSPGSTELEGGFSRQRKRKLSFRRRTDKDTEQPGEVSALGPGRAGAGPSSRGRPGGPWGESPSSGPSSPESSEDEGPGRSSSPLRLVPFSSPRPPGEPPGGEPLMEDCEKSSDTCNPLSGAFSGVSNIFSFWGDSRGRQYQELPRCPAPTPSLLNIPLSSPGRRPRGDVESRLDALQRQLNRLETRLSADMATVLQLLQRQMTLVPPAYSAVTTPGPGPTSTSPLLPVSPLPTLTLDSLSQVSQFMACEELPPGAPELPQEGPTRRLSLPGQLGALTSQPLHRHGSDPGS
Sequence of Sodium-dependent noradrenaline transporter (P23975 whole entry): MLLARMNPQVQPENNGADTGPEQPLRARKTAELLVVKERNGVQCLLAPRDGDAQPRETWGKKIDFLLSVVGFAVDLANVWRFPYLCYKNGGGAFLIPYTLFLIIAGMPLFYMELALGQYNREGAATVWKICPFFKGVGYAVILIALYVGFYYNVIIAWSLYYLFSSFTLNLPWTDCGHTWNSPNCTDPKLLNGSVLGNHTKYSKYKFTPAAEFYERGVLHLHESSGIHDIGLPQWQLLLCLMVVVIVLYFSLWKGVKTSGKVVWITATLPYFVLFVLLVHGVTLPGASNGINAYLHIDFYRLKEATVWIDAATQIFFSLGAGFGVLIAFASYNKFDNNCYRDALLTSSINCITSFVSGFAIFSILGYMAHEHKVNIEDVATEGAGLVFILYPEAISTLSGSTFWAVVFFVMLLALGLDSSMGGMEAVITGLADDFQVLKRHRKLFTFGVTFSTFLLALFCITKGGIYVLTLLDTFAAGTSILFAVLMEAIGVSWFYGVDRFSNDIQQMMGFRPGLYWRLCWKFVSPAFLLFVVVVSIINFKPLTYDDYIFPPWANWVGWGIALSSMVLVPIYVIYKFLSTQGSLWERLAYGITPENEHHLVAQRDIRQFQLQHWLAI
Sequence of Adenosine receptor A2a (P29274 whole entry): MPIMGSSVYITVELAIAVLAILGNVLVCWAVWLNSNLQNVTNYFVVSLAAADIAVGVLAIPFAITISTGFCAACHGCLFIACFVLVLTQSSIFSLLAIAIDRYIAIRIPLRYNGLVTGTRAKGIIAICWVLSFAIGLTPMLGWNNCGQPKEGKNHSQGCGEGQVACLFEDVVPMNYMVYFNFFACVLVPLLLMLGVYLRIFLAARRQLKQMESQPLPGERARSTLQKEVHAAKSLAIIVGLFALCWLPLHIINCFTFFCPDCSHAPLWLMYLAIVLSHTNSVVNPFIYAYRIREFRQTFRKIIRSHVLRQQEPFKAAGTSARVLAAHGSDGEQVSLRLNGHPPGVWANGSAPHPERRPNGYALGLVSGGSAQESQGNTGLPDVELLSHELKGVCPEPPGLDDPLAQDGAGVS

C[C@@H](CN1CC(=O)NC(=O)C1)N1CC(=O)NC(=O)C1 [DEXRAZOXANE]
AC50 [1]: > 30 µM

O=c1[nH]cc(F)c(=O)[nH]1 [FLUOROURACIL]
AC50 (Adenosine receptor A1): > 30 µM
AC50 (Adenosine receptor A2a): > 30 µM
AC50 [2]: > 30 µM
AC50 [1]: > 30 µM
AC50 [3]: > 30 µM

CCN(CCO)CCCC(C)Nc1ccnc2cc(Cl)ccc12 (stereo unspecified) [HYDROXYCHLOROQUINE]
AC50 (Adenosine receptor A1): > 10 µM
AC50 (Adenosine receptor A2a): > 10 µM
AC50 [4]: > 10 µM
AC50 [2]: > 10 µM
AC50 [5]: > 10 µM
AC50 [6]: > 10 µM
AC50 [7]: > 30 µM
AC50 [1]: 7.4 µM
AC50 [3]: > 10 µM

Cc1ccc(C(C)C)c(O)c1 [THYMOL]
AC50 [7]: 170 µM
AC50 [1]: > 30 µM

OC[C@H]1NC[C@H](O)[C@@H](O)[C@H]1O
AC50 [1]: > 30 µM

CN1CC2c3ccccc3Oc3ccc(Cl)cc3C2C1 (stereo unspecified) [ASENAPINE]
AC50 (Adenosine receptor A1): > 30 µM
AC50 (Adenosine receptor A2a): > 30 µM
AC50 [4]: 0.079 µM
AC50 [8]: 0.3 µM
AC50 [2]: > 30 µM
AC50 [5]: > 10 µM
AC50 [6]: 0.0013 µM
AC50 [7]: 0.0006 µM
AC50 [3]: 17 µM

CNC1(c2ccccc2Cl)CCCCC1=O (stereo unspecified) [KETAMINE]
AC50 [1]: > 30 µM

CS(=O)(=O)Nc1ccc([N+](=O)[O-])cc1Oc1ccccc1 [NIMESULIDE]
AC50 (Adenosine receptor A2a): 20 µM
AC50 [4]: > 30 µM
AC50 [8]: > 30 µM
AC50 [2]: 21 µM
AC50 [5]: > 30 µM
AC50 [7]: 26 µM
AC50 [1]: > 30 µM
AC50 [3]: 19 µM

CN1CCN(C(c2ccccc2)c2ccc(Cl)cc2)CC1 (stereo unspecified) [CHLORCYCLIZINE]
AC50 [1]: 4.64 µM

CN(C)CCC=C1c2ccccc2CCc2ccccc21 [AMITRIPTYLINE]
AC50 (Adenosine receptor A1): > 30 µM
AC50 (Adenosine receptor A2a): > 30 µM
AC50 [4]: 9.1 µM
AC50 [8]: 0.29 µM
AC50 [2]: > 30 µM
AC50 [5]: > 10 µM
AC50 [7]: 0.15 µM

O=P1(N(CCCl)CCCl)NCCCO1 (stereo unspecified) [CYCLOPHOSPHAMIDE ANHYDROUS]
AC50 [1]: > 30 µM

O=C(O)[C@H](O)[C@@H](O)[C@H](O)[C@H](O)CO [GLUCONIC ACID]
AC50 [1]: > 30 µM

CC#CC(=O)N1CCC[C@H]1c1nc(-c2ccc(C(=O)Nc3ccccn3)cc2)c2c(N)nccn12 [ACALABRUTINIB]
AC50 [1]: > 30 µM

CCCCCCCCCCCCCCCC(=O)OC[C@H](COP(=O)([O-])OCC[N+](C)(C)C)OC(=O)CCCCCCCCCCCCCCC [COLFOSCERIL PALMITATE]
AC50 [1]: > 30 µM

CC(=O)NC[C@H]1CN(c2ccc(N3CCOCC3)c(F)c2)C(=O)O1 [LINEZOLID]
AC50 (Adenosine receptor A1): > 30 µM
AC50 (Adenosine receptor A2a): > 30 µM
AC50 [4]: > 30 µM
AC50 [8]: > 30 µM
AC50 [2]: > 30 µM
AC50 [5]: > 30 µM
AC50 [7]: > 30 µM
AC50 [1]: > 30 µM

O=C1[C@@H]2[C@H]3CC[C@H](C3)[C@@H]2C(=O)N1C[C@@H]1CCCC[C@H]1CN1CCN(c2nsc3ccccc23)CC1 [LURASIDONE]
AC50 (Adenosine receptor A1): > 30 µM
AC50 (Adenosine receptor A2a): > 30 µM
AC50 [8]: 1.1 µM
AC50 [2]: > 10 µM
AC50 [6]: 0.071 µM
AC50 [7]: 25 µM
AC50 [3]: > 30 µM

CN1CCC(N(Cc2cccs2)c2ccccc2)CC1 [THENALIDINE]
AC50 [1]: 2.9 µM

N=C(N)NCC1COc2ccccc2O1 (stereo unspecified) [GUANOXAN]
AC50 [1]: > 30 µM

NC(=O)C1(N2CCCCC2)CCN(CCCN2c3ccccc3CCc3ccccc32)CC1 [CARPIPRAMINE]
AC50 [1]: 2.2 µM

CC(C)NC[C@H](O)COc1ccc(O)cc1 [PRENALTEROL]
AC50 [1]: > 30 µM

O=C(O)[C@@H](S)[C@@H](S)C(=O)O
AC50 [1]: > 30 µM

COc1cccc2c1C(=O)c1c(O)c3c(c(O)c1C2=O)C[C@@](O)(C(=O)CO)C[C@@H]3O[C@H]1C[C@H](N)[C@H](O[C@@H]2CCCCO2)[C@H](C)O1 [PIRARUBICIN]
AC50 [1]: > 30 µM

Cc1cc(C)cc(OCC2CNC(=O)O2)c1 (stereo unspecified) [METAXALONE]
AC50 [1]: > 30 µM

N#Cc1ccnc(N2C(=O)CC[C@H]2C(=O)N(c2cncc(F)c2)[C@H](C(=O)NC2CC(F)(F)C2)c2ccccc2Cl)c1 [IVOSIDENIB]
AC50 [1]: > 30 µM

NC(=O)C1(N2CCCCC2)CCN(CCCC(=O)c2ccc(F)cc2)CC1 [PIPAMPERONE]
AC50 [1]: 1.9 µM

c1cnc2cc3c(cc2n1)[C@@H]1CNC[C@H]3C1 [VARENICLINE]
AC50 (Adenosine receptor A1): > 30 µM
AC50 (Adenosine receptor A2a): > 30 µM
AC50 [4]: > 30 µM
AC50 [8]: > 30 µM
AC50 [5]: > 30 µM
AC50 [6]: > 30 µM
AC50 [7]: > 30 µM
AC50 [1]: > 30 µM
AC50 [3]: > 30 µM

CC1=C(C/C=C(\C)CCC[C@H](C)CCC[C@H](C)CCCC(C)C)C(=O)c2ccccc2C1=O [PHYTONADIONE]
AC50 [1]: > 30 µM

CCCCCCO[C@@H](C)c1cccc(-c2csc(NC(=O)c3cc(Cl)c(/C=C(\C)C(=O)O)c(Cl)c3)n2)c1OC [LUSUTROMBOPAG]
AC50 [1]: 4.9 µM

O=C(Cc1cccs1)N[C@@H]1C(=O)N2C(C(=O)[O-])=C(C[n+]3ccccc3)CS[C@H]12 [CEPHALORIDINE]
AC50 [4]: > 30 µM
AC50 [8]: > 30 µM
AC50 [5]: > 30 µM
AC50 [6]: > 30 µM
AC50 [7]: > 30 µM
AC50 [1]: > 30 µM

CC(C)Nc1cccnc1N1CCN(C(=O)c2cc3cc(NS(C)(=O)=O)ccc3[nH]2)CC1 [DELAVIRDINE]
AC50 [1]: 16 µM

Cc1cccc(C)c1NC(=O)c1cc(S(N)(=O)=O)c(Cl)cc1O [XIPAMIDE]
AC50 [1]: > 30 µM

CCCCCCCC/C=C\CCCCCCCC(=O)O [OLEIC ACID]
AC50 [1]: > 30 µM

O=c1[nH]c2ccccc2n1CCN1CCN(c2cccc(C(F)(F)F)c2)CC1 [FLIBANSERIN]
AC50 [1]: 13 µM

C#CCN(C)Cc1ccccc1 [PARGYLINE]
AC50 [4]: > 30 µM
AC50 [8]: > 30 µM
AC50 [5]: > 30 µM
AC50 [6]: > 30 µM
AC50 [7]: > 30 µM
AC50 [1]: > 30 µM

CN(C)CCCC1(c2ccc(F)cc2)OCc2cc(C#N)ccc21 (stereo unspecified) [CITALOPRAM]
AC50 (Adenosine receptor A1): > 30 µM
AC50 (Adenosine receptor A2a): > 30 µM
AC50 [4]: > 10 µM
AC50 [8]: > 10 µM
AC50 [5]: > 10 µM
AC50 [6]: 0.678 µM

CC(C)(Oc1ccc(Cl)cc1)C(=O)NC(=O)NCN1CCOCC1 [PLAFIBRIDE]
AC50 [1]: > 30 µM

CC(C)NCC(O)COc1ccc(CC(N)=O)cc1 (stereo unspecified) [ATENOLOL]
AC50 (Adenosine receptor A1): > 30 µM
AC50 (Adenosine receptor A2a): > 30 µM
AC50 [4]: > 30 µM
AC50 [8]: > 30 µM
AC50 [2]: > 30 µM
AC50 [5]: > 30 µM
AC50 [7]: > 30 µM
AC50 [3]: > 30 µM

C=CCOc1ccc(CC(=O)O)cc1Cl [ALCLOFENAC]
AC50 [1]: > 30 µM

CO[C@@]1(NC(=O)C(C(=O)O)c2ccc(O)cc2)C(=O)N2C(C(=O)O)=C(CSc3nnnn3C)CO[C@@H]21 (stereo partly specified) [MOXALACTAM]
AC50 [1]: > 30 µM
